Assay results published in article PMC6941952, “A homogeneous bioluminescent immunoassay to probe cellular signaling pathway regulation” (Communications Biology, 2020).
“And” between values parts separate entries of the source, which are not always exact repeats. Identical values can stand only once.

Tested on: phospho-IκBα (Ser32)
Assay: NanoBiT cell-based immunoassay, phosphorylated IκBα in MCF-7 cells
Parameters: species or system human
Description: Prior to NanoBiT Cell-Based Immunoassay, 50,000 cells were seeded in 160 µl of complete growth media per well of a 96-well plate and incubated overnight. The cells were checked under microscope and it was determined that 50,000 cells per well in 96-well plate is under 90% confluency for all cells tested. If necessary, the cell culture media were replaced with serum-free media after the cells were stably adherent on the plate and incubated overnight. To treat cells with activators or inhibitors, medium was changed to 30 µl of medium containing inhibitors. If activation of a specific pathway is needed, the cells were stimulated with 10 µl of medium containing activators. To lyse the cells, 10 µl of lysis buffer containing 0.1% digitonin diluted in 1X immunoassay buffer with protease and phosphatase inhibitors was added and the plates were mixed vigorously for 20 min. Then, 50 µl of an antibody mix containing two primary antibodies against the target protein and NanoBiT detecting antibodies (0.3 µl each per well), diluted in 1X immunoassay buffer was added to the lysates. The plates were incubated at 23 °C for 90 min, followed by the addition of 25 µl of Nano-Glo® reagent consisting of Nano-Glo® Luciferase Assay Substrate mixed with 1X immunoassay buffer. Luminescence was measured using a plate-reading luminometer.
In all, 50,000 MCF-7 cells were seeded in 160 µl complete growth medium per well of a 96-well plate and incubated overnight. Half of the cells were treated with 50 ng per ml TNFα and half with vehicle. Cells were lysed as described above and a mixture of NanoBiT secondary antibodies with primary antibodies at the matrix concentrations described in Fig. 2a were added. After 90 min incubation, the Nano-Glo® reagent was added to the reactions as described above and luminescence was measured using a plate-reading luminometer.
Single dose or dose response inhibitor treatments were performed prior to activation of the pathways as follows. For IκBα, the cells were treated in 30 µl medium with IKK16 or MG132 for 60 min before the addition of 10 µl of DMEM containing appropriate concentration of TNFα. To measure phosphorylation of AKT or STAT3, the corresponding NanoBiT immunoassays were developed with MCF-7 or A431 cells, respectively, according the same scheme used to develop the IκBα assay using the primary antibodies for AKT and STAT3 described in the reagents section. For the AKT assay, MCF-7 cells were incubated overnight in phenol-red free DMEM medium (Gibco #21063-029) without serum. Treatment with LY294002 was performed in 30 µl medium and cells were incubated for 60 min before the addition of 1 µM Insulin. To measure STAT3 phosphorylation, A431 cells were incubated overnight in DMEM medium without serum. […] After addition of the stimulators, the cells were incubated for additional times as follows. IκBα phosphorylation and degradation analyses required both time courses and single time points as described in figures. […] The NanoBiT immunoassay protocol was followed as described above.
All 96-well assay plates were read using a GloMax® 96 Microplate Luminometer from Promega. The instrument was set to 0.5 s integration time. In order to obtain net change of signal, the reagent background values (signal from the well containing all reagent except primary antibodies) were subtracted from the sample values. To plot and analyze the data, Microsoft Excel and GraphPad Prism® Software were used. IC50 values were determined by using a nonlinear regression fit to a sigmoidal dose response (variable slope).

## O=C(c1ccc(Nc2nccc(-c3cc4ccccc4s3)n2)cc1)N1CCC(N2CCCC2)CC1 [IKK16]
Figure 3a and 3b
  P-IkB Raw data: 17490 and 17630 and 17730
  P-IkB Subtract reagent background: 280 and 420 and 520
Figure 3a and 3b, background subtracted
  P-IkB Average: 407
MCF-7 cells, 10 µM 1 h, TNFα 50 ng per ml 10 min
  TNFα-induced phosphorylation of IκBα on serine 32: suppressed
